Earlier results on one compound are cited in patent US20120004294A1, “ANTITUMOR COMBINATION COMBINING AVE8062 AND DOCETAXEL” (SANOFI, priority 2008, published 2012).

SMILES strings stand for the structures.

For this series the following is noted: AVE8062A alone, at too high a dose (weekly doses 4.5-30 mg/m^2 studied).

`COc1ccc(/C=C\c2cc(OC)c(OC)c(OC)c2)cc1NC(=O)[C@@H](N)CO` [AVE8062A]: the Cardiotoxicity entry is given as “cardiotoxicity was observed”.
